Laboratory results as given in paper PMC4501119, “Cholestenoic acid, an endogenous cholesterol metabolite, is a potent γ-secretase modulator” (Molecular Neurodegeneration, 2015).
“And” between values parts separate entries of the source, which are not always exact repeats. Identical values can stand only once.

Experiments:
γ-secretase [1] = target: T1, γ-secretase (Homo sapiens, UniProt P49768); assay: In vitro γ-secretase assay with recombinant C100Flag and CHO S-1 membrane, Aβ and AICD spectra by MALDI-TOF; type: biochemical; conditions: 20 μM
T1 construct: The membrane derived from the H4 neuroglioma cells overexpressing APP695wt were prepared by carbonate extraction; endogenous in cells; host or cells: H4 neuroglioma cells overexpressing APP695wt (membranes, carbonate extraction)
Procedure: (§1) Broken cell assays were performed with slight modifications from the previous studies. The membrane derived from the H4 neuroglioma cells overexpressing APP695wt were prepared by carbonate extraction and incubated at 37 °C for 2 h with CA at various concentrations. Aβ levels were quantified by sandwich ELISAs. For Aβ and AICD spectra, the recombinant C100Flag proteins were overexpressed and purified from Escherichia coli BL21 using a HiTrap Q-column (GE Life Science, Little Chalfont, U.K.). The membrane containing γ-secretase was isolated from the CHO S-1 cell line using sodium carbonate (100 mM, pH 11.0). For the in vitro γ-secretase assay, C100Flag recombinant protein at 25 μM was incubated with the membrane (100 μg/mL) in the presence of CA (20 μM) and DMSO in 150 mM sodium citrate buffer (pH 6.8) containing complete protease inhibitor (Roche, Indianapolis, IN) for 2 h at 37 °C.
Conditioned media from the CHO-2B7 cells and the samples prepared from in vitro γ-secretase studies were used to analyze Aβ and AICD profiles using matrix-assisted laser desorption/ionization time of flight (MALDI-TOF) mass spectrometry analysis. The secreted Aβ peptides were analyzed as previously described with the following modifications. […] Samples were analyzed using a Bruker Microflex LRF-MALDI-TOF mass spectrometer.

[2] = set-up: method as in PMID 10428977; conditions: in humans; cited from earlier work
γ-secretase [3] = target: T1, γ-secretase; assay: In vitro γ-secretase (broken cell) assay, membranes of H4 neuroglioma cells overexpressing APP695wt, Aβ ELISA; type: biochemical; conditions: vs DMSO control, 2 h incubation
Procedure: as §1
(§2) Monoclonal antibodies to Aβ were generated by the Mayo Clinic Immunology Core facilities (Jacksonville, FL, USA). Ab5 recognizes an epitope in the amino terminus of Aβ (Aβ1-16), recognizes both monomeric and aggregated Aβ, and is human specific. […] Ab 2.1.3 was raised against Aβ35-42 and is specific for Aβx-42. […] For cell-based screens, Aβ was captured from conditioned medium with either Ab5, Ab38, Ab13.1.1, or Ab2.1.3 (coated at 10-50 μg/ml in EC buffer: 5 mM NaH2PO4-H2O, 20 mM Na2HPO4, 400 mM NaCl, 2.5 mM EDTA-full name, 151.5 μM BSA, 813 μM CHAPS, and 7.7 mM NaN3) on Immulon 4HBX Flat-Bottom Microfilter 96-well plates (Thermo Scientific, Waltham, MA, USA). Total Aβ level was determined by capture with Ab5 and detected with horseradish peroxidase (HRP)-conjugated 4G8 (a monoclonal antibody against Aβ17-24; Covance, Waltham, MA, USA) with the other Aβ peptides detected with HRP-conjugated Ab5. For the cell-free assay and measuring mouse endogenous Aβ, HRP-conjugated 4G8 was used as the secondary detection antibody. Aβ standards (Bachem, King of Prussia, PA, USA) were prepared by dissolving in hexafluoroisopropanol (HFIP) at 1 mg/ml with sonication, dried under nitrogen, resuspended at 2 mg/ml HFIP, sonicated again and dried under nitrogen. The resulting Aβ was resuspended in 0.01 % ammonium hydroxide, portioned into aliquots in EC buffer, and frozen at −80 °C. Following these steps, the Aβ is monomeric, as determined by size-exclusion chromatography.

[4] = Tolerability of IP doses in mice; type: in vivo, mouse; conditions: up to the highest dose 100 mg/kg
Procedure: 25(R)-CA powder was initially dissolved in DMSO (<4.5 % in the final mixture) and then combined with polyethylene glycol (15)-hydroxystearate (Solutol), ethanol, and water at a ratio of (15:10:75). One molar equivalent of sodium hydroxide was added to the mixture. We performed CA intraperitoneal (IP) injections to wild-type mice (C57BL/6 or CF-1). The mice were injected with 25(R)-CA on the right side of the abdomen. The injections have been performed with various time points (30 min, 1 h, 2 h, and 3 h) and with multiple doses (30 mg per kg (mg/kg), 60 mg/kg, 75 mg/kg and 100 mg/kg). The number of each cohort is 6–8. We used 30 mg/kg of CA for the time-course experiments, and for the dose–response experiments the end-point was set at 30 min. The brains and serum are harvested and frozen for brain Aβ extraction.

[5] = test system: endogenous mouse Aβ (mAβ) in primary neuron-glia cultures; assay: Primary mixed neuron-glia culture, endogenous mouse Aβ ELISA; type: cell-based
Procedure: Primary mixed neuron-glia cultures were prepared from postnatal day 0 (P0) C3HBL/6 mouse brains (Harlan Labs). Cerebral cortices were dissected from P0 mouse brains and were dissociated in 2 mg/ml papain (Worthington) and 50 μg/mL DNAse I (Sigma) at 37 °C for 20 min. They were then washed three times in sterile Hank’s balanced salt solution (HBSS) to inactivate the papain and switched to 5 % fetal bovine serume (HyClone) in Neurobasal-A growth media (Gibco), which includes 0.5 mM L-glutamine (Gibco), 0.5 mM GlutaMax (Life Technologies), 0.01 % antibiotic-antimycotic (Gibco), and 0.02 % SM1 supplement (Stemcell). The tissue mixture was then triturated three times using a 5 mL pipette followed by a Pasteur pipette, and strained through a 70 μm cell strainer. The cell mixture was then centrifuged at 200xg for 3 min, and re-suspended in fresh Neurobasal-A media. They were then plated onto poly-D-lysine coated 96well plates at 100,000 cells/well. Cells were maintained in the Neurobasal-A growth media mentioned above without fetal bovine serum (FBS) at 37 °C in a humidified 5 % CO2 chamber.
as §2

For `CC(CCC[C@@H](C)C(=O)O)[C@H]1CCC2C3CC=C4C[C@@H](O)CC[C@]4(C)C3CC[C@@]21C` (stereo partly drawn) [Cmpd 2a, 25(R)-cholestenoic acid], the “ε-site utilizations (AICD49-99 and AICD50-99)” value (γ-secretase [1]; vs DMSO control) is given as “did not affect”, the “Aβ spectra (MALDI-TOF)” value (γ-secretase [1]; vs DMSO treated control) is given as “decrease Aβ42 peak and increase Aβ38 peak” and the “half-life (T1/2)” value [2] is given as 1.5 h. For the same compound, the “change in total Aβ levels” value (γ-secretase [3]) was “without any significant changes”, the “decrease of Aβ42 production” value (γ-secretase [3]; CA at 150 μM, listed as CA) was 50% and 51% and the tolerability [4] was “well tolerated”. For the same compound, the “decrease of mAβ42 production” value ([5]; 3 μM) was ~ 60%, the “Aβ42:Aβ38 ratio” value ([5]; 3 μM and 10 μM) was “significant decrease” and the Aβ38 production ([5]; 10 μM) was “increased”. The “decrease of mAβ42 production” value ([5]; 10 μM) was ~ 75%.
